The values that follow come from ChEMBL document CHEMBL1122212, “Substance P” (1982).

The species entered for assay [1] is Cavia porcellus. The assay is described as follows: Potency of compound was determined for contraction of guinea pig ileum relative to substance P(=1). The class given is functional.
The next assay concerns Cricetinae gen. sp. As to the kind of experiment: Potency of compound was determined in hamster bladder relative to substance E. The class given is functional.
In assay [2] the target is Substance-P receptor (Rattus norvegicus) (UniProt P14600). As to the kind of experiment: Potency for [3H]SP binding to Tachykinin receptor 1 in rat brain central nervous system (CNS). The class given is tissue-based.
Substance-P receptor (Rattus norvegicus), sequence (P14600 whole entry): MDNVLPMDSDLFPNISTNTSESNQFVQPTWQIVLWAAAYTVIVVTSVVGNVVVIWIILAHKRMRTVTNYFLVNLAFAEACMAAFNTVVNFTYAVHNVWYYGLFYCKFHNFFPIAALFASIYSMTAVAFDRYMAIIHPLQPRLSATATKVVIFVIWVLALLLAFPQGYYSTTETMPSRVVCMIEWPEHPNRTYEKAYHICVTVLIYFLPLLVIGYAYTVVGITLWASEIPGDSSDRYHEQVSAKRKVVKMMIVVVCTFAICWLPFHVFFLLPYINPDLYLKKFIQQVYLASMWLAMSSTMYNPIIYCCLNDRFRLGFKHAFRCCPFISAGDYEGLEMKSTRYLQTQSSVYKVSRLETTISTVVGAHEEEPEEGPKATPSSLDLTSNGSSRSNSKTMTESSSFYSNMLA
Assay [3] is filed under the species Rattus norvegicus. The assay is described as follows: Potency of compound was determined in rat duodenum relative to substance E. The class given is functional.
The species entered for assay [4] is Rattus norvegicus. The assay is described as follows: Potency of compound was determined for contraction of rat bladder relative to substance P(=1). The class given is functional.
For assay [5], the species on record is Cavia porcellus. The assay is described as follows: Potency of compound was determined for contraction of guinea pig vas deferens relative to substance P(=1). The class given is functional.
Assay [6] is filed under the species Rattus norvegicus. The assay is described as follows: Potency of compound was determined in rat vas deferens relative to substance E. The class given is functional.

Square brackets hold non-standard residues; d marks the D form. Peptide text beside a SMILES is read from it. pGlu = O=C1CC[C@@H](C(=O)O)N1

For `CC[C@H](C)[C@H](NC(=O)[C@H](Cc1ccccc1)NC(=O)[C@H](C)NC(=O)[C@H](CC(=O)O)NC(=O)[C@H](CCCCN)NC(=O)[C@H](CO)NC(=O)[C@@H]1CCCN1C(=O)[C@@H]1CCC(=O)N1)C(=O)NCC(=O)N[C@@H](CC(C)C)C(=O)N[C@@H](CCSC)C(N)=O` [ELEDOISIN] ([pGlu]PSKDAFIGLM-NH2), the Potency in the assay listed under Cavia porcellus [1] came to 0.9; in the assay on Cricetinae gen. sp., 105; in assay [2], 0.3; in the assay listed under Rattus norvegicus [3], 13.9; in the assay filed under Rattus norvegicus [4] it was 0.96; in the assay listed under Cavia porcellus [5] it was 0.6. In the assay listed under Rattus norvegicus [6], the Potency was 86.
